{
  "source": "patent US20230096897A1",
  "about": "“Lymphocyte Population and Methods for Producing Same” (AVM Biotechnology, LLC, priority 2020, published 2023)",
  "key": {"AVM-NKT cells": {"tested_on": "AVM-NKT cells", "assay": "Flow cytometry of osteoarthritis patients treated with dexamethasone", "assay_type": "in vivo, human", "settings": "3-6 mg/kg; 48 hours post treatment; one of four patients"}, "[1]": {"tested_on": "human CD3high, CD45dim, CD56+ cells", "assay": "Human AVM-NKT cells in BRGSF humanized mice", "assay_type": "in vivo, mouse", "settings": "oral HED 18-45 mg/kg; 24-48 hours later", "procedure": "BRGSF humanized mice on a Balb/c background from Genoway generated by transplanting human umbilical cord blood CD34+ stem cells into irradiated mice that lack mouse B and T lymphocytes and NK cells but have a functional mouse complement system are orally dosed with HED 18-45 mg/kg DSP. 24-48 hours later human CD3high, and/or human CD45dim, and/or human CD56+ cells can be observed to be about 0.2-3% of total splenocytes by flow cytometry."}, "[2]": {"tested_on": "human CD3high, CD45dim, CD56+ cells", "assay": "Human AVM-NKT cells in HuCD34-NCG mice", "assay_type": "in vivo, mouse", "settings": "oral HED 18-45 mg/kg; 24-48 hours later", "source_text": "The HuCD34-NCG mouse from Charles River is a study-ready mouse model with a human-like immune system, created by adoptive transfer of CD34+ stem cells. HuCD34-NCG mice are an ideal in vivo platform to evaluate the effectiveness of compounds modulating the human immune system. The lack, or late onset, of graft-versus-host disease (GvHD) in humanized mice make them ideal for long-term studies.\nNCG mice are humanized by adoptive transfer using human umbilical cord blood-derived CD34+ stem cells, following myeloablation treatment. NCG mice from 4 donors (n=2 per donor) are orally dosed with HED 18-45 mg/kg DSP. 24-48 hours later human CD3high, and/or human CD45dim, and/or human CD56+ cells can be observed to be about 0.2-3% of total splenocytes by flow cytometry."}, "[3]": {"tested_on": "human CD3high, CD45dim, CD56+ cells", "assay": "Human AVM-NKT cells in huNOG EXL mice", "assay_type": "in vivo, mouse", "settings": "oral HED 18-45 mg/kg; 24-48 hours later", "procedure": "huNOG EXL from Taconic have an average of 54% of CD45 cells positive for human CD45. Six huNOG EXL humanized immune system mice from 3 donors (n=2 per donor) are orally dosed with HED 18-45 mg/kg DSP. 24-48 hours later human CD3high, and/or human CD45dim, and/or human CD56+ cells can be observed to be about 0.2-3% of total splenocytes by flow cytometry."}, "[4]": {"tested_on": "CD3high, CD45dim, CD49b+ cells", "assay": "Venetoclax pre-treatment before high dose DSP in female NOD mice", "assay_type": "in vivo, mouse", "settings": "48 hours after HED 30 mg/kg DSP alone", "procedure": "Female NOD mice of 10 weeks of age are treated with 12.5 mg/kg up to 50 mg/kg venetoclax 6-18 hours before oral gavage of a HED 30 mg/kg DSP dose. […] CD3high, CD45dim, CD49b+ cells are reduced from—70 cells/microliter with DSP alone to—40 cells/microliter with 12.5 mg/kg venetoclax pretreatment, to—20 cells/microliter with 25 mg/kg venetoclax pretreatment, to—15 cells/microliter with 50 mg/kg venetoclax pretreatment. Venetoclax is a Bcl-2 inhibitor."}, "A20 B cell lymphoma [5]": {"tested_on": "A20 B cell lymphoma", "assay": "A20 B-cell lymphoma models, summary of studies", "assay_type": "in vivo, mouse", "source_text": "The mouse A20 lymphoma model is a very aggressive tumor model because it employs multiple direct (expression of immunoinhibitory molecule PD-L1, IDO, and IL-10, and lack of expression of CD80 costimulatory molecule) and indirect (downregulation of APC function and induction of Treg cells) immune evasion mechanisms. In addition, in the studies described in the following, AVM0703 was not dosed until A20 tumors were very well-established, at between ˜120 to 400 mm^3 in volume.\nMale BALB/c mice were inoculated subcutaneously in the flank with A20 B lymphoma cells embedded in Matrigel. Tumor volumes were monitored by caliper measurements, and when the tumors were well established at about 150 mm^3, or very well established for study “AVM_CANMOD_05” at about 400 mm^3, mice were treated with AVM0703 at HED doses of 7, 18, 22, or 25 mg/kg. Endpoint is typically defined as tumor volume of 1500 mm^3.\nThese mice were pooled and a contingency table analysis was performed using Fisher's exact test."}, "A20 B cell lymphoma [6]": {"tested_on": "A20 B cell lymphoma", "assay": "A20 lymphoma study AVM_CANMOD_01 (repeat dosing)", "assay_type": "in vivo, mouse"}, "A20 B cell lymphoma [7]": {"tested_on": "A20 B cell lymphoma", "assay": "A20 lymphoma study AVM_CANMOD_03 (dose response)", "assay_type": "in vivo, mouse", "procedure": "In a second study (“AVM_CANMOD_03”), BALB/c mice (n=5 per group) were dosed with increasing concentrations of AVM0703 HED DP (7, 18, and 26 mg/kg) on Days 9, 16, 24, and 31 after tumor inoculation. Treatment started when the tumors were approximately […], as opposed to well-established tumors of 150 mm^3 as in study AVM_CANMOD_01.\nBased on evidence of pseudogrowth in tumors from AVM0703-treated mice in study AVM_CANMOD_01, tumors (n=2 per group) were sent to HistoTox Labs for slicing and immunohistochemistry. Hematoxylin and eosin stains identified several regions of necrosis and the slides were scored from 0 to 5 depending on severity."}, "A20 B cell lymphoma [8]": {"tested_on": "A20 B cell lymphoma", "assay": "A20 lymphoma study AVM_CANMOD_05, endpoint analysis subset", "assay_type": "in vivo, mouse"}, "female NOD mice [9]": {"tested_on": "female NOD mice", "assay": "Prevention or delay of hyperglycemia in spontaneously diabetic female NOD mice", "assay_type": "in vivo, mouse", "procedure": "Female NOD mice were ordered at 9 weeks of age.\nBody weights and blood glucose levels were monitored weekly. Body condition was monitored three times per week. Oral glucose tolerance was determined in all surviving mice who reached 30 weeks of age. Remaining mice were necropsied and autoreactive lymphocytes in the pancreas and adjacent lymph nodes were determined by flow cytometry. Pancreatitis was determined by H&E staining (8 out of 15 per group). Pancreatic Beta cell surface area was measured by staining for insulin. […] Pancreas and pancreas lymph nodes were examined for autoreactive, insulin-specific CD4+ T cells by using a magnetic enrichment method together with tetramer reagents."}, "female NOD mice [10]": {"tested_on": "female NOD mice", "assay": "Reversal of early onset and established diabetes in female NOD mice", "settings": "mouse, in vivo", "procedure": "Female NOD mice are ordered at 9 weeks of age. Blood glucose levels are measured weekly starting at 10 weeks of age. Once a mouse has non-fasting blood glucose above 250 mg/dl, another measure is taken the following day.\nFor reversal of new-onset diabetes AVM0703 dosing is started one day after a mouse has had two consecutive days of elevated non-fasting blood glucose levels. Insulin pellets are implanted subcutaneously on the second day of elevated blood glucose levels. For reversal of established diabetes, two consecutive weeks of elevated blood glucose are measured, insulin pellets are implanted on day 8 after the first day of measured elevated blood glucose levels and AVM0703 is dosed on day 14 after the first day of measured elevated blood glucose levels."}, "A20 B cell lymphoma [11]": {"tested_on": "A20 B cell lymphoma", "assay": "A20 lymphoma study AVM_CANMOD_05, lymphodepletion subset"}, "[12]": {"tested_on": "CCRF-CEM human T cell lymphoma", "assay": "CCRF-CEM human T cell lymphoma xenograft in NCr nude mice (AVM_CANMOD_06)", "description": "A pilot study (“AVM_CANMOD_06”) was performed to investigate anti-tumor efficacy of AVM0703 in a human T cell lymphoma model, CCRF-CEM.\nTumor volume was assessed 3 times per week and endpoint was defined as either a tumor volume greater than 1500 mm^3 or greater than a 20% loss from initial body weight measurement."}, "[13]": {"settings": "18, 22, and 25 mg/kg pooled, n = 40"}},
  "note": "Entries after “also recorded” stand apart in the source; their conditions may differ.",
  "data": [
    {"compound": "dexamethasone sodium phosphate [DSP]", "values": [
      {"measurement": "Cells corresponding to AVM-NKT cells (CD45 dim, CD56 very bright) in blood", "setting": "AVM-NKT cells", "value": "identified"},
      {"measurement": "human CD3high, and/or CD45dim, and/or CD56+ cells as share of total splenocytes", "setting": "[1]", "value": "0.2-3%"},
      {"measurement": "human CD3high, and/or CD45dim, and/or CD56+ cells as share of total splenocytes", "setting": "[2]", "value": "0.2-3%"},
      {"measurement": "human CD3high, and/or CD45dim, and/or CD56+ cells as share of total splenocytes", "setting": "[3]", "value": "0.2-3%"},
      {"measurement": "CD3high, CD45dim, CD49b+ cells mobilized into the blood", "setting": "[4]", "value": 70, "unit": "cells/microliter"}
    ]},
    {"compound": "C[C@@H]1C[C@H]2[C@@H]3CCC4=CC(=O)C=C[C@]4(C)[C@@]3(F)[C@@H](O)C[C@]2(C)[C@@]1(O)C(=O)CO", "note": "[AVM0703, dexamethasone]", "values": [
      {"measurement": "HistoTox Labs Necrosis H&E (0-5), Average", "setting": "A20 B cell lymphoma [5]; 18 mg/kg, n = 15", "value": 2.7, "unit": "n = 15"},
      {"measurement": "MetaMorph Area of Live Tumor, Average", "setting": "A20 B cell lymphoma [5]; 18 mg/kg, n = 18", "value": "66^ n = 18 AU × 1000"},
      {"measurement": "MetaMorph Percent Necrotic, Average", "setting": "A20 B cell lymphoma [5]; 18 mg/kg, n = 18", "value": 59, "unit": "n = 18%"},
      {"measurement": "MetaMorph Area of Live Tumor, Average", "setting": "A20 B cell lymphoma [5]; 22 mg/kg, n = 11", "value": 87, "unit": "n = 11 AU × 1000"},
      {"measurement": "MetaMorph Percent Necrotic, Average", "setting": "A20 B cell lymphoma [5]; 22 mg/kg, n = 11", "value": 53, "unit": "n = 11%"},
      {"measurement": "MetaMorph Area of Live Tumor, Average", "setting": "A20 B cell lymphoma [5]; 25 mg/kg, n = 11", "value": 77, "unit": "n = 11 AU × 1000"},
      {"measurement": "MetaMorph Percent Necrotic, Average", "setting": "A20 B cell lymphoma [5]; 25 mg/kg, n = 11", "value": 63, "unit": "n = 11%"},
      {"measurement": "MetaMorph Area of Live Tumor, Average", "setting": "A20 B cell lymphoma [5]; [13]", "value": 75, "unit": "n = 40 AU × 1000"},
      {"measurement": "MetaMorph Percent Necrotic, Average", "setting": "A20 B cell lymphoma [5]; [13]", "value": 59, "unit": "n = 40%"},
      {"measurement": "Mice reaching the 20% body weight loss threshold", "setting": "A20 B cell lymphoma [6]; after 46 days and 8 doses, n=5", "value": "One mouse"},
      {"measurement": "Body weight", "setting": "A20 B cell lymphoma [6]; repeat 18 mg/kg HED DP dosing, up to 7 doses", "value": "Does Not Reduce Body Weight"},
      {"measurement": "Sudden deaths", "setting": "A20 B cell lymphoma [7]; 7, 18, 26 mg/kg", "value": "no sudden deaths"},
      {"measurement": "Spleen, thymus, colon, pancreas weights", "setting": "A20 B cell lymphoma [7]; 7, 18, 26 mg/kg, at euthanization", "value": "No significant differences"},
      {"measurement": "Additional median survival compared with placebo", "setting": "A20 B cell lymphoma [7]; 18 and 26 mg/kg, not significant", "value": "approximately 6 days"},
      {"measurement": "Tumor necrosis", "setting": "A20 B cell lymphoma [7]; A20-3 DRC, 18&26 mg/kg", "value": "18&26 mg/kg 50-80% necrotic"},
      {"measurement": "Tumor resorbed", "setting": "A20 B cell lymphoma [8]; 1 mouse treated at 18 mg/kg", "value": 99.5, "unit": "%"},
      {"measurement": "Overall complete response rate", "setting": "A20 B cell lymphoma [8]; both subsets of AVM_CANMOD_05", "value": 9, "unit": "%"},
      {"measurement": "MetaMorph Area of Live Tumor", "setting": "A20 B cell lymphoma [8]; individual mice, 18 mg/kg", "value": 27, "unit": "AU × 1000"},
      {"measurement": "MetaMorph Percent Necrotic", "setting": "A20 B cell lymphoma [8]; individual mice, 18 mg/kg", "value": 69, "unit": "%"},
      {"measurement": "Mice with significantly delayed onset", "setting": "female NOD mice [9]; AVM0703 alone", "value": 60, "unit": "%"},
      {"measurement": "Mice in which diabetes was prevented", "setting": "female NOD mice [9]; AVM0703 alone, 5 month study", "value": 40, "unit": "%"},
      {"measurement": "First Onset of hyperglycemia (weeks of age)", "setting": "female NOD mice [9]; dosing from 10 weeks of age, AVM0703 single oral HED 18 or 30 mg/kg, cyclosporine 5 then 10 mg/kg twice weekly, venetoclax 25 mg/kg", "value": "20 weeks of age"},
      {"measurement": "% Hyperglycemic at 22 wks of age", "setting": "female NOD mice [9]; same groups", "value": 60, "unit": "%"},
      {"measurement": "Median Time to diabetes (days after 10 wks of age)", "setting": "female NOD mice [9]; same groups", "value": 113, "unit": "days"},
      {"measurement": "Body condition compared with all other groups", "setting": "female NOD mice [9]; throughout the 5 month study", "value": "significantly better body condition"},
      {"measurement": "Body weight loss or poor body condition", "setting": "female NOD mice [10]", "value": "without the body weight loss or poor body condition"},
      {"measurement": "Glucose levels", "setting": "A20 B cell lymphoma [11]; 18 mg/kg HED, did not reach hypoglycemic levels", "value": "significantly reduced"},
      {"measurement": "Tumor weight, tumor example", "setting": "A20 B cell lymphoma [11]; 25 mg/kg, placebo example 0.54 g", "value": 0.086, "unit": "g"},
      {"measurement": "Tumor volume, tumor example", "setting": "A20 B cell lymphoma [11]; 25 mg/kg, placebo example 956 mm^3", "value": 203.25, "unit": "mm^3"},
      {"measurement": "Glucose levels", "setting": "A20 B cell lymphoma [11]; tumor model", "value": "not elevated"},
      {"measurement": "Day after tumor inoculation on which one mouse was found dead", "setting": "[12]; 18 mg/kg weekly", "value": 89, "unit": "days"},
      {"measurement": "Tumor lysis", "setting": "[12]; one treated mouse", "value": "Significant tumor lysis; also recorded: Evidence of Tumor Lysis Syndrome"}
    ]}
  ]
}
